Laboratory results as given in patent US20250170101A1, “MONOACYLGLYCEROL LIPASE INHIBITORS AND USE THEREOF FOR THE TREATMENT AND MANAGEMENT OF PAIN AND RELATED CONDITIONS” (Psy Therapeutics, Inc., priority 2021, published 2025).

Tests used:
human recombinant FAAH = biological target: T1, human recombinant FAAH (Homo sapiens, UniProt O00519); assay: FAAH counter screen (Cayman FAAH Inhibitor Screening Assay Kit), Example 21; assay type: biochemical
T1 construct: purchased Cayman kit Item No. 10005196; FAAH enzyme 700302
T1 sequence (O00519 1-579): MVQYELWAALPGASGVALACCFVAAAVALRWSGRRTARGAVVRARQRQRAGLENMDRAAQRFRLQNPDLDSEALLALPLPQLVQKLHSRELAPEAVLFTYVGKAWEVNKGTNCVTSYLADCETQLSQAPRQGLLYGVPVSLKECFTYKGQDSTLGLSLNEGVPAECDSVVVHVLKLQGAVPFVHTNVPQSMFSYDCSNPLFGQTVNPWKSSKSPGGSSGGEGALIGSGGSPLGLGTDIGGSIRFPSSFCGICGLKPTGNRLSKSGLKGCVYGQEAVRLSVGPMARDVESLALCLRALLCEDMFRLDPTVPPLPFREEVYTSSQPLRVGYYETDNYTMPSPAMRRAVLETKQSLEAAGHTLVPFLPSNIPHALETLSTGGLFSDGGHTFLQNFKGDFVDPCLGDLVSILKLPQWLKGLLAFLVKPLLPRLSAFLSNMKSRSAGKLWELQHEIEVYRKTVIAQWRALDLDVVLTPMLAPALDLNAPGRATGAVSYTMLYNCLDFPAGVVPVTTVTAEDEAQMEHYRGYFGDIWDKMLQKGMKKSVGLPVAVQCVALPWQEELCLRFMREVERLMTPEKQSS
Protocol: Comparative compound potency at FAAH can be obtained with the following assay.
MAGL inhibitor compounds were also counter-screened for FAAH inhibition potency using the following assay. Assessment of FAAH inhibition was performed using Fatty Acid Amide Hydrolase Inhibitor Screening Assay Kit (Cayman Item No. 10005196) following manufacture's instruction with some modifications. The kit utilizes human recombinant FAAH and the fluorescent substrate, AMC Arachidonoyl amide (AAMCA). 5 μL of assay buffer (125 mM Tris, pH 9.0, 1 mM EDTA, i.e. ethylenediaminetetraacetic acid) was added to a 384-well black plate (Corning, 3573). Test compounds and control inhibitor JZL-195 (Cayman Chemical, 13668) were tested in 10-concentration IC50 mode with 3-fold serial dilution at a starting concentration of 100 μM and 10 μM, respectively. 300 nL or 30 nL of test compounds were delivered into a 384-well black plate (Corning, 3573) using a Labcyte Echo, followed by addition of 15 μL of FAAH enzyme (Cayman, 700302) in assay buffer. After a 5-minute pre-incubation at room temperature, 10 μL of AAMCA was added in assay buffer to start the reaction. Final concentration of FAAH enzyme is not specified and AAMCA substrate was used at the 20 uM. After these dilutions, the final concentration of the test compounds ranged from 100 μM to 5.08 nM or 10 μM down to 0.508 nM. The reaction was allowed to progress for 60 minutes, while the plate was read on an Envision plate reader at an Ex/Em of 350/460 nm with readings every minute. The data was analyzed in Microsoft Excel, using the slope between 30 and 59 minutes. The average of the no-enzyme wells (background) was subtracted from the data. The background-subtracted slope data was converted to % activity using the average of wells with enzyme and DMSO vehicle. IC50 values were calculated using GraphPad software (Sigmoidal dose response, variable slope equation).
Compounds listed in Table D2 were tested in the FAAH Counterscreen of Example 21

MAGL enzyme = biological target: T2, MAGL enzyme (Homo sapiens, UniProt Q99685); assay: MAGL reversible inhibition assay (washout), Example 22; assay type: biochemical; parameters: % MAGL activity returning after washout: concentration or dose not given beside the values; details: for degree to which MAGL enzymatic activity returned following washout of test compounds: pre-washout compound concentration 1 μM; for % MAGL activity returning after washout: relative to control (no inhibitor before washout), immediately following 30 minute washout
T2 sequence (Q99685 1-303): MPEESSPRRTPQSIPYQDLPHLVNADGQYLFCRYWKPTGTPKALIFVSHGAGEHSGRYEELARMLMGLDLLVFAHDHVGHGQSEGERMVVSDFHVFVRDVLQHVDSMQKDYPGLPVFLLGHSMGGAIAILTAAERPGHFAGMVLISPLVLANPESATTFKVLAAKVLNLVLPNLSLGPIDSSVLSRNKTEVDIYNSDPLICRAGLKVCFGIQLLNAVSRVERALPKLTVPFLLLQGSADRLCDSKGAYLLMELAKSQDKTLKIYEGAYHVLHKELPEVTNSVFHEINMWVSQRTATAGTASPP
Protocol: The reversible mechanism of MAGL inhibition of a test compound of Formula (I) can be determined. Flag-tagged MAGL enzyme will be immobilized on anti-Flag beads. Immobilized enzyme will be incubated+/−inhibitor at a dose that produces complete inhibition. Colorimetric substrate (4-NPA) will be added and the reaction monitored on a plate reader for 30 minutes to verify complete inhibition. Immobilized enzyme will then be washed thoroughly to remove the inhibitor, and fresh substrate will be added. The reaction will be monitored for an additional 30 minutes; returning enzymatic activity will indicate reversibility of inhibition. […]
For some test compounds, % activity returning after washout may be less than 100%/if complete compound unbinding takes longer than 30 minutes.

[1] = tested on: Acute Post-Operative Pain (Brennan) mice model; assay: Acute Post-Operative Pain (Brennan) mice model, Example 26; assay type: in vivo, Mus Musculus C57BL/6; details: 40 mg/kg, IP
Excerpt: The aim of this experiment was to evaluate effect of the test compounds Compound 74 and JZL-184 in Acute Post-Operative Pain (Brennan) mice model. • Mouse model: Mus Musculus & C57BL/6, male, 6-8 weeks • End points: mechanical allodynia and brain 2-AG (optional)
(§1) • Animals was anaesthetized under Isoflorane anesthesia. • Using aseptic conditions, prepared the plantar aspect of left hind paw with a 10% povidone-iodine solution and place the paw through a hole in a sterile cloth drape. Made a 0.5-cm longitudinal incision through skin and fascia of the paw with a no. 11 scalpel blade, beginning 0.2 cm from the proximal edge of the heel and extending toward the digits. • Elevated the underlying muscle with small curved forceps and incised longitudinally with the scalpel blade, keeping the muscle origin and insertion intact. • After homeostasis with gentle pressure, apposed the skin with 5-0 slik sutures. Cover the wound site.

[2] = tested on: Post-Operative Pain (Brennan) mouse model; assay: Chronic treatment in Post-Operative Pain (Brennan) mouse model, Example 27; assay type: in vivo, Mus Musculus C57BL/6; details: 40 mg/kg, IP, single dose
Excerpt: The aim of this experiment was to evaluate effect of the test compounds Compound 74 and JZL-184 in after Chronic treatment in a Post-Operative Pain (Brennan) mouse model. • Mouse model: Mus Musculus & C57BL/6, male, 6-8 weeks • End points: mechanical allodynia and body weight
as §1

[3] = Method A: starting concentration of 100 μM

Row | SMILES | IC50 (human recombinant FAAH; Method B: starting concentration of 10 μM) | degree to which MAGL enzymatic activity returned following washout of test compounds (MAGL enzyme) | % MAGL activity returning after washout (MAGL enzyme) | IC50 (human recombinant FAAH; [3]) | mechanical allodynia (Threshold, g) vs Vehicle control ([1]; at 30, 60 & 90 min) | Clinical observation ([1]; post IP administration) | mechanical allodynia (Threshold, g) vs Vehicle control [2]
1 | O=C(c1cc(O)ccc1F)N1CC2(CC(n3cc(C4CC4)c(-c4ccccc4F)n3)C2)C1 [Compound 493] | > 10 µM | 47 | <50% |  |  |  | 
2 | Cc1cc(C2CC3(C2)CN(C(=O)c2cccc(O)c2)C3)n(-c2ccccc2C)n1 [Compound 125, (3-hydroxyphenyl)(6-(3-methyl-1-(o-tolyl)-1H-pyrazol-5-y1)-2-azaspiro[3.3]heptan-2-yl)methanone] |  |  |  | > 10 µM |  |  | 
3 | O=C(Oc1ccc([N+](=O)[O-])cc1)N1CCC(C(O)(c2ccc3c(c2)OCO3)c2ccc3c(c2)OCO3)CC1 [JZL-184, reference compound] |  | complete lack of return of MAGL enzymatic activity | <1% |  | significant decrease in mechanical allodynia | mild hypolocomotion | significant decrease in mechanical allodynia
4 | O=C(Oc1ccc([N+](=O)[O-])cc1)N1CCN(Cc2cccc(Oc3ccccc3)c2)CC1 [reference compound] |  |  |  | 0.459 µM |  |  | 
